Among the data in patent US20220194960A1, “WEE1 INHIBITOR AND PREPARATION AND USE THEREOF” (SHOUYAO HOLDINGS (BEIJING) CO., LTD., priority 2019, published 2022) are IC50 values, retold here.

What is called IC50 is the concentration needed to halve the response being measured.

T1 sequence (P30291 whole entry): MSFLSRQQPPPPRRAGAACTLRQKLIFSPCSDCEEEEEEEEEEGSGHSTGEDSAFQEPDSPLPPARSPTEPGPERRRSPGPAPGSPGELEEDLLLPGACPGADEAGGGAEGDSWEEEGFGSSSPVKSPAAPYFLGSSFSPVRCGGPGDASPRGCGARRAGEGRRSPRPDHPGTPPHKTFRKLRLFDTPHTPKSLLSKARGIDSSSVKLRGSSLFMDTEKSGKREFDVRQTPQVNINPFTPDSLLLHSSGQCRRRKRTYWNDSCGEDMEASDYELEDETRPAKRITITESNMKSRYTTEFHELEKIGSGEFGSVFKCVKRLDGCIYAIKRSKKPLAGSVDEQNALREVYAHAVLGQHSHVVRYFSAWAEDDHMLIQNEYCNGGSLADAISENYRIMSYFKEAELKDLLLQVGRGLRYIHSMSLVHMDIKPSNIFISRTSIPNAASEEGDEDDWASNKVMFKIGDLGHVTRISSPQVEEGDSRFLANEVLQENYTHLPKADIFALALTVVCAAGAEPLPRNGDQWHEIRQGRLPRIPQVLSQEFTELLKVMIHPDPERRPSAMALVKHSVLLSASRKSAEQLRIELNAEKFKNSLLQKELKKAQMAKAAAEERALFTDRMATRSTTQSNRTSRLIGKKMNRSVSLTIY

This test addresses T1, WEE1 kinase (Homo sapiens, UniProt P30291).
T1 construct: purchased Carna bioscience
Nature of the test: WEE1 kinase binding assay (LanthaScreen EU). The conditions noted are these: WEE1 kinase 20 nM, Kinase Tracer 178 100 nM, 23° C. for 60 min, read-out: WEEI (IC50). How it is done:
1. Assay for WEE1 Kinase Inhibitory Activity (IC50) on Compounds
The WEE1 kinase binding assay was established and optimized with LanthaScreen EU for the determination of the activity of compounds. 10 mM compounds were subjected to ten-fold gradient dilution in 100% DMSO (6 concentrations in total), 5 μL of diluent from each concentration was added to 45 μL of reaction buffer (50 mM HEPES (4-hydroxyethylpiperazine ethanesulfonic acid), pH 7.5, 10 mM MgCl2 (magnesium chloride), 1 mM EGTA (ethylene glycol diethyl ether diamine tetraacetic acid), 0.01% Brij-35 (polyoxyethylene lauryl ether)) for blending. On this basis, 2 μL diluent from each concentration was added to 48 μL of reaction buffer for blending as a 4*compound (final concentrations of 1000, 100, 10, 1, 0.1, 0 nM) for later use. Reaction buffer was used to formulate 4*WEE1 kinase (purchased from Carna bioscience, a final concentration of 20 nM), 4*LanthaScreen EU-anti-GST Antibody (purchased from Invitrogen, PV5594, a fuel concentration of 2 nM), and 4*Kinase Tracer 178 (purchased from Invitrogen, PV5593, a final concentration of 100 nM). 2.5 μL of 4*compound was added to a 384-well plate (OptiPlate-384, purchased from PerkinElmer), followed by adding 2.5 μL of 4*WEE1 kinase, standing for 5 min at room temperature. Then 2.5 μL of 4*LanthaScreen EU-anti-GST Antibody was added followed by 2.5 μL of 4*Kinase Tracer 178. The reaction was started by centrifugation (a total reaction volume of 10 μL). The 384-well plate was wrapped with tin foil paper and placed in an incubator at 23° C. for 60 min. Fluorescence values (excitation at 320 nm, detecting emitted light at 665 nm and 615 nm, and a ratio of the two as enzyme activity) were read on Envision (purchased from PerkinElmer). The enzyme activity of each compound was measured at 6 concentrations, and the IC50 value of the compound was calculated using GraFit6.0 software (Erithacus Software).
The aforementioned “*” refers to multiplying, representing multiples.
On to `CCCc1cc2cnc(Nc3ccc(N4CCN(C)CC4)cc3)nc2n1-c1cccc(C(C)(C)O)n1` [Example 2, 2-(6-(2-((4-(4-methylpiperazin-1-yl)phenyl)amino)-6-propyl-7H-pyrrolo[2,3-d]pyrimidin-7-yl)pyridin-2-yl)propan-2-ol], for which the concentration for half-maximal inhibition (IC50) came out at 0.88 nM.

Take `CC(C)c1cc2cnc(Nc3ccc(N4CCN(C)CC4)cc3)nc2n1-c1cccc(N=S(C)(C)=O)n1` [Example 6, ((6-(6-isopropyl-2-((4 (4-methylpiperazin-1-yl)phenyl)amino)-7H-pyrrolo[2,3-d]pyrimidin-7-yl)pyridin-2-yl)imino)dimethyl-λ^6-sulfanone]: the half-inhibitory concentration (IC50) came out at 0.96 nM.

Regarding `CN(C)CCN(C)c1ccc(Nc2ncc3c(F)c(C4CC4)n(-c4cccc(N=S(C)(C)=O)n4)c3n2)cc1` [Example 14, ((6-(5-fluoro-2-((4-((2-(dimethylamino)ethyl)(methyl)amino)phenyl)amino)-6-cyclopropyl-7H-pyrrolo[2,3-d]pyrimidin-7-yl)pyridin-2-yl)imino)dimethyl-λ^6-sulfanone], the concentration for half-maximal inhibition (IC50) came out at 1 nM.

In the case of `CS(C)(=O)=Nc1cccc(-n2c(C3CC3)c(F)c3cnc(Nc4ccc(N5CCC(N6CCOCC6)CC5)cc4)nc32)n1` [Example 35, ((6-(5-fluoro-2-((4-(4-(morpholine 4-yl)piperidin-1-yl)phenyl)amino)-6-cyclopropyl-7H-pyrrolo[2,3-d]pyrimidin-7-yl)pyridin-2-yl)imino)dimethyl-λ^6-sulfanone], the IC50 was found to be 0.61 nM.

As for `CN1CCN(c2ccc(Nc3ncc4c(F)c(C5CC5)n(-c5cccc(N=S(C)(C)=O)n5)c4n3)cn2)CC1` [Example 37, ((6-(6-cyclopropyl-5-fluoro-2-((6-(4-methylpiperazin-1-yl)pyridin-3-yl)amino)-7H-pyrrolo[2,3-d]pyrimidin-7-yl)pyridin-2-yl)imino)dimethyl-λ^6-sulfanone], the IC50 amounted to 1.08 nM.

Consider `COc1cc(Nc2ncc3cc(C4CC4)n(-c4cccc(N=S(C)(C)=O)n4)c3n2)ccc1N1CCN(C)CC1` [Example 38, ((6-(2-(((3-methoxy-4-(4-methylpiperazin-1-yl)phenyl))amino)-6-cyclopropyl-7H-pyrrolo[2,3-d]pyrimidin-7-yl)pyridin-2-yl)imino)dimethyl-λ^6-sulfanone], for which the half-maximal inhibitory concentration (IC50) is 0.3 nM.

In the case of `CN1CCN(C2CCN(c3ccc(Nc4ncc5cc(C6CC6)n(-c6cccc(N=S(C)(C)=O)n6)c5n4)cc3Cl)CC2)CC1` [Example 54], the half-inhibitory concentration (IC50) came to 1.04 nM.

In the case of `CN1CCN(c2ccc(Nc3ncc4cc(C5CC5)n(-c5cccc(C(C)(C)O)n5)c4n3)cc2)CC1` [Example 55, 2-(6-(2-((4-(4-methylpiperazin-1-yl)phenyl)amino)-6-cyclopropyl-7H-pyrrolo[2,3-d]pyrimidin-7-yl)pyridin-2-yl)propan-2-ol], the IC50 was 0.98 nM.

For the compound `CS(C)(=O)=Nc1cccc(-n2c(C3CC3)c(F)c3cnc(Nc4ccc(C5C[C@H]6CC[C@@H](C5)N6)cc4)nc32)n1` (stereo partly drawn) [Example 63], the IC50 came to 0.85 nM.

For `CS(C)(=O)=Nc1cccc(-n2c(C3CC3)c(F)c3cnc(Nc4ccc(N5C[C@H]6CC[C@@H](C5)N6)cc4)nc32)n1` [Example 80, ((6-(2-((4-((1R,5S)-3,8-diazabicyclo[3.2.1]octan-3-yl)phenyl)amino)-6-cyclopropyl-5-fluoro-7H-pyrrolo[2,3-d]pyrimidin-7-yl)pyridin-2-yl)imino)dimethyl-λ^6-sulfanone], the IC50 amounted to 1.18 nM.

Take `CCCc1cc2cnc(Nc3ccc(N4CCN(CCN(C)C)CC4)cc3)nc2n1-c1cccc(C(C)(C)O)n1` [Example 109, 2-(6-(6-propyl-2-((4-(4 (2-(dimethylamino)ethyl)piperazin-1-yl)phenyl)amino)-7H-pyrrolo[2,3-d]pyrimidin-7-yl)pyridin-2-yl)propan-2-ol]: the IC50 worked out at 1.12 nM.

Turning to `CC(C)c1cc2cnc(Nc3ccc(N4CCN(C)CC4)cc3)nc2n1-c1cccc(C(C)(C)O)n1` [Example 141, 2-(6-(6-isopropyl-2-((4-(4-methylpiperazin-1-yl)phenyl)amino)-7H-pyrrolo[2,3-d]pyrimidin-7-yl)pyridin-2-yl)propan-2-ol], the IC50 was 0.84 nM.
